Measurements published in patent US20210353624A1, “METHOD OF TREATING CANCER WITH TELOTRISAT OR A PRODRUG THEREOF” (TerSera Therapeutics LLC, priority 2020, published 2021).

Columns and labels:
[1] = tested on: 5-HT; test: Biomarker changes after TE initiation (TELEACE): 5-HT; format: in vivo, human; settings: n=22
Protocol: (§1) This example provides the effects of telotristat ethyl treatment on selected patient biomarkers (i.e., u5-HIAA; CgA; 5-HT; and NT-proBNP) in the retrospective, single arm study of Example 4.
(§2) The average (SD) duration of documented TE treatment was 12.0 (7.3) months with a median (IQR) of 9.0 (6.8, 15.2) months. In many cases, a patient received a TE dosage of 250 mg three times per day.
(§3) The continuous measures of biomarker values pre- and post-TE initiation were described using mean, SD, median, and IQR. The biomarkers were assessed only among patients with complete biomarker assessment results in both pre-TE and post-TE initiation periods. A Wilcoxon signed rank test was used to calculate P-values for the mean change in biomarker value.
(§4) Patients with reported biomarker values below, at, or above normal range in pre-TE and post-TE initiation periods were described using proportions and frequencies. The biomarkers were assessed only among patients with complete biomarker assessment results in both pre-TE and post-TE initiation periods. McNemar's test was used to calculate P-values for the differences in paired proportions of patients with values above the upper limit of normal.
(§5) To evaluate the relationship between the change in biomarker values (i.e., u5-HIAA; CgA; 5-HT) and the change in tumor progression between the pre- and post-TE periods, Pearson's correlation coefficient was used to assess the correlation between biomarker assessments and tumor sizes and to derive the associated P-values. The correlations were assessed only among patients with complete biomarker assessment results in both pre-TE and post-TE initiation periods. The relationship between biomarker values and tumor sizes during pre-TE and post-TE initiation period was presented using scatterplots.
(§6) For the biomarker results below, the pre-TE initiation period is defined as 12 months before the index date (initiation of TE). The assessment closest to the index date during the pre-TE period was reported for each biomarker.
(§7) The post-TE initiation period is defined as a period from index date to the earlier of end of treatment with TE or date of chart abstraction. The assessment closest to the date of chart abstraction during the post-TE period was reported for each biomarker.
(§8) The data includes patients with reported biomarker values, units, and laboratory ranges during pre- and post-TE initiation periods. It excludes patients who had different biomarker units or laboratory ranges reported pre- and post-TE initiation.
(§9) The normal range was defined by reported laboratory lower limit of normal and upper limit of normal.
The Wilcoxon signed rank test was used to calculate P-values for the mean change in biomarker values pre- and post-TE initiation.
(§10) Table 5-4 is based on patients who had complete biomarker assessment results (u5-HIAA: N=22; 5-HT: N=22) in both pre-TE and post-TE initiation periods. Correlation analysis was not conducted for CgA and NT-proBNP due to small sample sizes for CgA (n=15) and NT-proBNP (n=2). Pearson's correlation coefficient was used to assess the correlation between biomarker assessments and tumor sizes and to derive the associated P-values. Values have been converted to mg/24 hours based on the following conversion rate: […].

[2] = tested on: human intrahepatic CCA cells CCLP-1; test: Tumor growth study in CCLP-1 subcutaneous xenografts; format: in vivo, NOD/SCID mice
Protocol: The human intrahepatic CCA cells CCLP-1 were cultured in DMEM containing 10% FBS. Animal survival was studied in a peritoneal dissemination model, and a tumor growth study was performed in subcutaneous xenografts using 4-6 weeks old female NOD/SCID mice by injecting 10×10^6 CCLP-1 cells per mouse. Ten days after tumor cell injection, mice were randomized (n=4-7) to receive PBS (control), gemcitabine (50 mg/kg, 2×wk), cisplatin (2.5 mg/kg, 2×wk survival study, 1×wk tumor growth study), nab-paclitaxel (5 mg/kg, 2×wk) or telotristat ethyl (100 mg/kg, 5×wk), for two weeks. In the survival study, mice were monitored daily and euthanized when moribund, and survival was measured from the first day of treatment until death. In the tumor growth study, tumor size was measured twice per week and tumor volume was measured using the formula V=½ (L×W2, with L=length and W=width). Comparative statistics utilized one-way ANOVA, Student's t-test and logrank methods.

[3] = tested on: normal cell lines: fallopian tube epithelium (FT240), ovarian surface epithelium (OSE22), first trimester placental fibroblasts (FTP); test: Cell confluence of normal cell lines grown with telotristat ethyl; format: cell-based; settings: 0, 5, 15 and 30 μM telotristat ethyl, 24 to 96 hours
Protocol: (§11) This example provides experiments assessing the effects of telotristat ethyl on three aggressive cancer cell lines—liposarcoma (94T778), colon cancer (HT-29), and cholangiocarcinoma (TFK-1)—and three “normal” cell lines—fallopian tube epithelium (FT240), ovarian surface epithelium (OSE22), and first trimester placental fibroblasts (FTP).
(§12) The cells were grown with 0, 5, 15 and 30 μM telotristat ethyl, plated into four-chambered slides with an initial confluence of at least 30%, and cultured for 24 to 96 hours. At the end of each 24-hour period, cell density was measured with hematoxylin, and the presence of 5-HT was assessed by immunohistochemistry. Experiments were performed in triplicate. Cell confluence was determined, and the 5-HT expression was recorded as an H-score.

[4] = tested on: u5-HIAA; test: Biomarker changes after TE initiation (TELEACE): u5-HIAA; format: in vivo, human; settings: n=22
Protocol: as §1, §2, §3, §4, §5, §6, §7, §8, §9
The values in Table 5-1 have been converted to mg/24 hours based on the following conversion rate: […]. The Wilcoxon signed rank test was used to calculate P-values for the mean change in biomarker values pre- and post-TE initiation.
as §10

[5] = tested on: CgA; test: Biomarker changes after TE initiation (TELEACE): CgA; format: in vivo, human; settings: n=15
Protocol: as §1, §2, §4, §6, §7, §8, §9
McNemar's test could not be performed because all patients had CgA value above normal range pre-TE initiation.

[6] = tested on: liposarcoma (94T778); test: Cell confluence of tumor cell line grown with telotristat ethyl; format: cell-based; settings: 94T778 cells; 0, 5, 15 and 30 μM telotristat ethyl; 24 to 96 hours; confluence decreased progressively with concentration
Protocol: as §11, §12

[7] = tested on: colon cancer (HT-29); test: as above; format: cell-based; settings: HT-29 cells; 0, 5, 15 and 30 μM telotristat ethyl; 24 to 96 hours; impact ranked between 94T778 and TFK-1
Protocol: as §11, §12

CCOC(=O)[C@@H](N)Cc1ccc(-c2cc(O[C@H](c3ccc(Cl)cc3-n3ccc(C)n3)C(F)(F)F)nc(N)n2)cc1 [telotristat ethyl, (S)-ethyl 2-amino-3-(4-(2-amino-6-((R)-1-(4-chloro-2-(3-methyl-1H-pyrazol-1-yl)phenyl)-2,2,2-trifluoroethoxy)pyrimidin-4-yl)phenyl)propanoate]
5-HT Measurement (ng/24 hours) Post-TE Initiation, Median (IQR) ([1]; IQR 320.0, 700.0, pre-TE 459.5 (389.0, 701.0)): 399.5 ng/24 hours | 5-HT Below normal range Post-TE, n (%) ([1]; pre-TE 0 (0)): 0 (0) n (%) | 5-HT At normal range Post-TE, n (%) ([1]; pre-TE 1 (4.5)): 2 (9.1) n (%) | 5-HT Above normal range Post-TE, n (%) ([1]; pre-TE 21 (95.5), P=0.317): 20 (90.9) n (%) | 5-HT Measurement (ng/24 hours) Post-TE Initiation, Mean ± SD ([1]; pre-TE 648.9 ± 448.1, P=0.026): 533.5 ± 329.2 ng/24 hours | tumor weight at the completion of therapy ([2]; controls 0.187 g): 0.091 g | net tumor growth ([2]; gemcitabine 50 mg/kg 2×wk, cisplatin 2.5 mg/kg 1×wk, nab-paclitaxel 5 mg/kg 2×wk, telotristat ethyl 100 mg/kg 5×wk, two weeks, controls 199 mm^3): 93 mm^3 | cell confluence [3]: minimally impacted | u5-HIAA Below normal range Post-TE, n (%) ([4]; pre-TE 0 (0)): 0 (0) n (%) | u5-HIAA At normal range Post-TE, n (%) ([4]; pre-TE 1 (4.5)): 2 (9.1) n (%) | u5-HIAA Above normal range Post-TE, n (%) ([4]; pre-TE 21 (95.5), P=0.317): 20 (90.9) n (%) | u5-HIAA Measurement (mg/24 hours) Post-TE Initiation, Median (IQR) ([4]; pre-TE 42.0 (25.0, 65.0)): 25.0 (16.0, 44.0) mg/24 hours | u5-HIAA Measurement (mg/24 hours) Post-TE Initiation, Mean ± SD ([4]; pre-TE 72.5 ± 98.0, P<0.001): 43.6 ± 54.7 mg/24 hours | patients with CgA above normal range pre-TE who had normal CgA value post-TE initiation [5]: ~30% | CgA At normal range Post-TE, n (%) ([5]; pre-TE 0 (0)): 4 (26.7) n (%) | CgA Below normal range Post-TE, n (%) ([5]; pre-TE 0 (0)): 0 (0) n (%) | CgA Above normal range Post-TE, n (%) ([5]; pre-TE 15 (100.0)): 11 (73.3) n (%) | cell confluence [6]: most impacted | cell confluence [7]: between these two
